Data taken from ChEMBL document CHEMBL4049462, “Synthesis and Biological Evaluation of Novel Neuroprotective Pyridazine Derivatives as Excitatory Amino Acid Transporter 2 (EAAT2) Activators” (2017).

Assays:
Type in all cases: functional
[1] = test system: Rattus norvegicus; assay: Antiallodynic activity in oxaliplatin-induced Sprague-Dawley rat allodynia model assessed as paw withdrawal latency time at 3.42 mg/kg, sc administered daily up to day 6 measured on day 7 post last dose by Von Frey test (reference value: 12.4 +/- 1.2 secs)
[2] = test system: Rattus norvegicus; assay: Antihypersensitivity in oxaliplatin-induced Sprague-Dawley rat thermal hyperalgesia model assessed as paw withdrawal latency time at 3 mg/kg, sc administered daily up to day 13 measured on day 14 post last dose by plantar test (reference value: 10.6 +/- 0.5 secs)
[3] = test system: Rattus norvegicus; assay: Antiallodynic activity in oxaliplatin-induced Sprague-Dawley rat allodynia model assessed as paw withdrawal latency time at 3.37 mg/kg, sc administered daily up to day 6 measured on day 7 post last dose by Von Frey test (reference value: 12.4 +/- 1.2 secs)
[4] = test system: Rattus norvegicus; assay: Antiallodynic activity in oxaliplatin-induced Sprague-Dawley rat allodynia model assessed as increase in paw withdrawal latency time at 3.37 mg/kg, sc administered daily up to day 13 measured on day 14 post last dose by Von Frey test relative to control
[5] = test system: Rattus norvegicus; assay: Antiallodynic activity in oxaliplatin-induced Sprague-Dawley rat allodynia model assessed as paw withdrawal latency time at 3.37 mg/kg, sc administered daily up to day 6 measured on day 7 post last dose by cold plate test (reference value: 14.3 +/- 0.3 secs)
[6] = test system: Rattus norvegicus; assay: Antihypersensitivity in oxaliplatin-induced Sprague-Dawley rat hyperalgesia model assessed as increase in weight tolerated on posterior paw at 3.37 mg/kg, sc administered daily up to day 13 measured on day 14 post last dose by analgesimeter relative to control
[7] = test system: Rattus norvegicus; assay: Antiallodynic activity in oxaliplatin-induced Sprague-Dawley rat allodynia model assessed as paw withdrawal latency time at 3.37 mg/kg, sc administered daily up to day 13 measured on day 14 post last dose by cold plate test (reference value: 12 +/- 1.2 secs)
[8] = test system: Rattus norvegicus; assay: Antihypersensitivity in oxaliplatin-induced Sprague-Dawley rat hyperalgesia model assessed as weight tolerated on posterior paw at 3.37 mg/kg, sc administered daily for 7 days post oxaliplatin challenge measured on day 7 post last dose by analgesimeter (reference value: 46.1 +/- 0.5 g)
[9] = test system: Rattus norvegicus; assay: Antihypersensitivity in oxaliplatin-induced Sprague-Dawley rat thermal hyperalgesia model assessed as paw withdrawal latency time at 3.37 mg/kg, sc administered daily up to day 6 measured on day 7 post last dose by plantar test (reference value: 9 +/- 1 secs)
[10] = test system: Rattus norvegicus; assay: Antiallodynic activity in oxaliplatin-induced Sprague-Dawley rat allodynia model assessed as paw withdrawal latency time at 3.42 mg/kg, sc administered daily up to day 6 measured on day 7 post last dose by cold plate test (reference value: 14.3 +/- 0.3 secs)
[11] = test system: Rattus norvegicus; assay: Antiallodynic activity in oxaliplatin-induced Sprague-Dawley rat allodynia model assessed as increase in paw withdrawal latency time at 3.42 mg/kg, sc administered daily up to day 13 measured on day 14 post last dose by Von Frey test relative to control
[12] = test system: Rattus norvegicus; assay: Antihypersensitivity in oxaliplatin-induced Sprague-Dawley rat thermal hyperalgesia model assessed as paw withdrawal latency time at 3.42 mg/kg, sc administered daily up to day 13 measured on day 14 post last dose by plantar test (reference value: 10.6 +/- 0.5 secs)
[13] = test system: Rattus norvegicus; assay: Antihypersensitivity in oxaliplatin-induced Sprague-Dawley rat hyperalgesia model assessed as increase in weight tolerated on posterior paw at 3.42 mg/kg, sc administered daily up to day 13 measured on day 14 post last dose by analgesimeter relative to control
[14] = test system: Rattus norvegicus; assay: Antihypersensitivity in oxaliplatin-induced Sprague-Dawley rat hyperalgesia model assessed as weight tolerated on posterior paw at 3.42 mg/kg, sc administered daily for 7 days post oxaliplatin challenge measured on day 7 post last dose by analgesimeter (reference value: 46.1 +/- 0.5 g)
[15] = test system: Rattus norvegicus; assay: Antiallodynic activity in oxaliplatin-induced Sprague-Dawley rat allodynia model assessed as paw withdrawal latency time at 3.42 mg/kg, sc administered daily up to day 13 measured on day 14 post last dose by cold plate test (reference value: 12 +/- 1.2 secs)
[16] = test system: Rattus norvegicus; assay: Antihypersensitivity in oxaliplatin-induced Sprague-Dawley rat thermal hyperalgesia model assessed as paw withdrawal latency time at 3.42 mg/kg, sc administered daily up to day 6 measured on day 7 post last dose by plantar test (reference value: 9 +/- 1 secs)
[17] = test system: Rattus norvegicus; assay: Antihypersensitivity in oxaliplatin-induced Sprague-Dawley rat thermal hyperalgesia model assessed as paw withdrawal latency time at 3 mg/kg, sc administered daily up to day 6 measured on day 7 post last dose by plantar test (reference value: 9 +/- 1 secs)
[18] = test system: Rattus norvegicus; assay: Antihypersensitivity in oxaliplatin-induced Sprague-Dawley rat hyperalgesia model assessed as increase in weight tolerated on posterior paw at 3 mg/kg, sc administered daily for 14 days post oxaliplatin challenge measured on day 14 post last dose by analgesimeter relative to control
[19] = test system: Rattus norvegicus; assay: Antiallodynic activity in oxaliplatin-induced Sprague-Dawley rat allodynia model assessed as paw withdrawal latency time at 3 mg/kg, sc administered daily up to day 6 measured on day 7 post last dose by cold plate test (reference value: 14.3 +/- 0.3 secs)
[20] = test system: Rattus norvegicus; assay: Antihypersensitivity in oxaliplatin-induced Sprague-Dawley rat hyperalgesia model assessed as increase in weight tolerated on posterior paw at 3 mg/kg, sc administered daily for 7 days post oxaliplatin challenge measured on day 7 post last dose by analgesimeter relative to control
[21] = test system: Rattus norvegicus; assay: Antiallodynic activity in oxaliplatin-induced Sprague-Dawley rat allodynia model assessed as paw withdrawal latency time at 3 mg/kg, sc administered daily up to day 13 measured on day 14 post last dose by cold plate test (reference value: 12 +/- 1.2 secs)
[22] = test system: Rattus norvegicus; assay: Antiallodynic activity in oxaliplatin-induced Sprague-Dawley rat allodynia model assessed as increase in paw withdrawal latency time at 3 mg/kg, sc administered daily up to day 13 measured on day 14 post last dose by Von Frey test relative to control
[23] = test system: Rattus norvegicus; assay: Antiallodynic activity in oxaliplatin-induced Sprague-Dawley rat allodynia model assessed as increase in paw withdrawal latency time at 3 mg/kg, sc administered daily up to day 6 measured on day 7 post last dose by Von Frey test relative to control
[24] = test system: Rattus norvegicus; assay: Antiallodynic activity in oxaliplatin-induced Sprague-Dawley rat allodynia model assessed as paw withdrawal latency time at 3.43 mg/kg, sc administered daily up to day 6 measured on day 7 post last dose by Von Frey test (reference value: 12.4 +/- 1.2 secs)
[25] = test system: Rattus norvegicus; assay: Antihypersensitivity in oxaliplatin-induced Sprague-Dawley rat hyperalgesia model assessed as weight tolerated on posterior paw at 3.43 mg/kg, sc administered daily for 7 days post oxaliplatin challenge measured on day 7 post last dose by analgesimeter (reference value: 46.1 +/- 0.5 g)
[26] = test system: Rattus norvegicus; assay: Antihypersensitivity in oxaliplatin-induced Sprague-Dawley rat hyperalgesia model assessed as increase in weight tolerated on posterior paw at 3.43 mg/kg, sc administered daily up to day 13 measured on day 14 post last dose by analgesimeter relative to control
[27] = test system: Rattus norvegicus; assay: Antiallodynic activity in oxaliplatin-induced Sprague-Dawley rat allodynia model assessed as paw withdrawal latency time at 3.43 mg/kg, sc administered daily up to day 13 measured on day 14 post last dose by cold plate test (reference value: 12 +/- 1.2 secs)
[28] = test system: Rattus norvegicus; assay: Antihypersensitivity in oxaliplatin-induced Sprague-Dawley rat thermal hyperalgesia model assessed as paw withdrawal latency time at 3.43 mg/kg, sc administered daily up to day 6 measured on day 7 post last dose by plantar test (reference value: 9 +/- 1 secs)
[29] = test system: Rattus norvegicus; assay: Antihypersensitivity in oxaliplatin-induced Sprague-Dawley rat thermal hyperalgesia model assessed as paw withdrawal latency time at 3.43 mg/kg, sc administered daily up to day 13 measured on day 14 post last dose by plantar test (reference value: 10.6 +/- 0.5 secs)
[30] = test system: Rattus norvegicus; assay: Antiallodynic activity in oxaliplatin-induced Sprague-Dawley rat allodynia model assessed as paw withdrawal latency time at 3.43 mg/kg, sc administered daily up to day 6 measured on day 7 post last dose by cold plate test (reference value: 14.3 +/- 0.3 secs)
[31] = test system: Rattus norvegicus; assay: Antiallodynic activity in oxaliplatin-induced Sprague-Dawley rat allodynia model assessed as increase in paw withdrawal latency time at 3.43 mg/kg, sc administered daily up to day 13 measured on day 14 post last dose by Von Frey test relative to control
[32] = test system: Rattus norvegicus; assay: Antihypersensitivity in oxaliplatin-induced Sprague-Dawley rat thermal hyperalgesia model assessed as paw withdrawal latency time at 3.37 mg/kg, sc administered daily up to day 13 measured on day 14 post last dose by plantar test (reference value: 10.6 +/- 0.5 secs)
[33] = test system: Rattus norvegicus; assay: Antihypersensitivity in oxaliplatin-induced Sprague-Dawley rat thermal hyperalgesia model assessed as paw withdrawal latency time at 3.28 mg/kg, sc administered daily up to day 6 measured on day 7 post last dose by plantar test (reference value: 9 +/- 1 secs)
[34] = test system: Rattus norvegicus; assay: Antiallodynic activity in oxaliplatin-induced Sprague-Dawley rat allodynia model assessed as paw withdrawal latency time at 3.28 mg/kg, sc administered daily up to day 6 measured on day 7 post last dose by cold plate test (reference value: 14.3 +/- 0.3 secs)
[35] = test system: Rattus norvegicus; assay: Antihypersensitivity in oxaliplatin-induced Sprague-Dawley rat thermal hyperalgesia model assessed as paw withdrawal latency time at 3.28 mg/kg, sc administered daily up to day 13 measured on day 14 post last dose by plantar test (reference value: 10.6 +/- 0.5 secs)
[36] = test system: Rattus norvegicus; assay: Antihypersensitivity in oxaliplatin-induced Sprague-Dawley rat hyperalgesia model assessed as weight tolerated on posterior paw at 3.28 mg/kg, sc administered daily for 7 days post oxaliplatin challenge measured on day 7 post last dose by analgesimeter (reference value: 46.1 +/- 0.5 g)
[37] = test system: Rattus norvegicus; assay: Antiallodynic activity in oxaliplatin-induced Sprague-Dawley rat allodynia model assessed as paw withdrawal latency time at 3.28 mg/kg, sc administered daily up to day 13 measured on day 14 post last dose by Von Frey test (reference value: 11.6 +/- 0.5 secs)
[38] = test system: Rattus norvegicus; assay: Antiallodynic activity in oxaliplatin-induced Sprague-Dawley rat allodynia model assessed as increase in paw withdrawal latency time at 3.28 mg/kg, sc administered daily up to day 6 measured on day 7 post last dose by Von Frey test relative to control
[39] = test system: Rattus norvegicus; assay: Antihypersensitivity in oxaliplatin-induced Sprague-Dawley rat hyperalgesia model assessed as weight tolerated on posterior paw at 3.28 mg/kg, sc administered daily up to day 13 measured on day 14 post last dose by analgesimeter (reference value: 44.7 +/- 1.2 g)
[40] = test system: Rattus norvegicus; assay: Antiallodynic activity in oxaliplatin-induced Sprague-Dawley rat allodynia model assessed as paw withdrawal latency time at 3.28 mg/kg, sc administered daily up to day 13 measured on day 14 post last dose by cold plate test (reference value: 12 +/- 1.2 secs)

c1ccc(-c2ccc(SCc3cccc4cccnc34)nn2)nc1
Time [1]: 18.8 s | Time [2]: 13.8 s | Time [3]: 17.6 s | Activity [4]: 68.7% | Time [5]: 18 s | Activity [6]: 44.3% | Time [7]: 18 s | Activity [8]: 51.3 g | Time [9]: 12.5 s

c1ccc(-c2ccc(SCc3cc4ccccc4s3)nn2)nc1
Time [10]: 17.8 s | Activity [11]: 64.3% | Time [12]: 15.1 s | Activity [13]: 86.2% | Activity [14]: 55.3 g | Time [15]: 17.5 s | Time [16]: 12.8 s

c1ccc(-c2ccc(SCc3ccc4ccccc4c3)nn2)nc1
Time [2]: 15.5 s | Time [3]: 17.6 s | Activity [4]: 53% | Time [5]: 16 s | Activity [6]: 40.1% | Time [7]: 16.5 s | Activity [8]: 51.9 g | Time [9]: 14.2 s

Cc1ccccc1CSc1ccc(-c2ccccn2)nn1
Time [17]: 14.1 s | Time [2]: 18.3 s | Activity [18]: 76.4% | Time [19]: 17 s | Activity [20]: 67.1% | Time [21]: 22.5 s | Activity [22]: 75.9% | Activity [23]: 51.3%

c1ccc(-c2ccc(SCc3nc4ccccc4s3)nn2)nc1
Time [24]: 16.4 s | Activity [25]: 54.7 g | Activity [26]: 72.5% | Time [27]: 16.3 s | Time [28]: 14.3 s | Time [29]: 15.8 s | Time [30]: 15.8 s

c1ccc(-c2ccc(SCc3ccc4ccccc4n3)nn2)nc1
Time [3]: 13.5 s | Activity [31]: 67.8% | Time [32]: 13.7 s | Activity [4]: 33% | Time [5]: 14.5 s | Activity [6]: 31.7% | Time [7]: 15.6 s | Activity [8]: 48.4 g | Time [9]: 11.6 s

c1ccc(-c2ccc(SCc3cccc4nonc34)nn2)nc1
Time [33]: 15.2 s | Time [34]: 19.4 s | Time [35]: 18.7 s | Activity [36]: 58.6 g | Time [37]: 23.8 s | Activity [38]: 62.8% | Activity [39]: 62.8 g | Time [40]: 22 s
